According to PMC2912288 (International journal of pharmaceutics, 2010):
“Also recorded” adds a separate entry of the source. Like-named read-outs stand apart in the source and are kept apart here.

What was measured:
[1] = molecular target: T1, human apical sodium-dependent bile acid transporter (ASBT) (Homo sapiens, UniProt Q12908); test: Uptake of prodrug into ASBT-MDCK monolayers
T1 sequence (Q12908 1-348): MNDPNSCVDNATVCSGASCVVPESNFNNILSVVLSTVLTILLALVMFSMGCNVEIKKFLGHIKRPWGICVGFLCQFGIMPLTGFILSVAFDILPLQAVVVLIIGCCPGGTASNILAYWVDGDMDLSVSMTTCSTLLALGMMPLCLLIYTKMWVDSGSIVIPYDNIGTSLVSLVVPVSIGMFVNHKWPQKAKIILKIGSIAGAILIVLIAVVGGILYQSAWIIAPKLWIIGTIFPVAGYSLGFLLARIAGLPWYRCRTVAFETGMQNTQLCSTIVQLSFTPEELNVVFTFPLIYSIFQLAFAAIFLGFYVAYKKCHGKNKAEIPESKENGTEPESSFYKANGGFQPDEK

[2] = ref Burnette and de, 1994; cited from earlier work
Pept1 [3] = details: CHO-PepT1; ref Han et al., 1998; cited from earlier work
Pept1 [4] = details: Xenopus laevis oocytes; ref Balimane et al., 1998; cited from earlier work
[5] = ref Porter and Kaplan, 2009; cited from earlier work
[6] = molecular target: T1, human apical sodium-dependent bile acid transporter (ASBT); test: Inhibition of taurocholate uptake by prodrugs in ASBT-MDCK monolayers; assay type: cell-based; details: taurocholate uptake into ASBT-MDCK monolayers, 10 min
[7] = of the drug moiety; source not stated; cited from earlier work
[8] = prodrug uptake into ASBT-MDCK, 1–500 μM, 10 min, 37°C, mean (±SEM) of three measurements

CDCA-lysine-niacin
ASBT's capacity to transport, relative to that of taurocholate ([1]; from normJmax): about 9% | Kt [1, 8]: 8.22 (±3.63) μM

C[C@H](CCC(=O)NCCS(=O)(=O)O)[C@H]1CC[C@H]2[C@@H]3[C@H](O)C[C@@H]4C[C@H](O)CC[C@]4(C)[C@H]3C[C@H](O)[C@]12C [taurocholate, Taurocholic acid]
Kt ([1]; taurocholate, obtained from a pooled data analysis approach): 5.03 µM

CC(C)[C@H](N)C(=O)OCCOCn1cnc2c(=O)[nH]c(N)nc21 [valacyclovir]
increase of acyclovir bioavailability [2]: 3 fold | Ki (Pept1 [3]): 1.1 mM | Ki (Pept1 [4]): 4.08 mM

O=C(O)c1cccnc1 [niacin, nicotinic acid]
half-life [5]: 20 to 45 min | ASBT inhibition (result in words) [6]: Neither ketoprofen nor niacin was ASBT inhibitor; also recorded: not reduced | Log P [7]: 0.25

CDCA-lysine-ketoprofen
transport capacity relative to the capacity for taurocholate ([1]; from normJmax): 1.87 fold | Kt [1, 8]: 50.8 (±23.2) μM

CC(C(=O)O)c1cccc(C(=O)c2ccccc2)c1 (stereo not drawn) [ketoprofen, Ketoprofen]
ASBT inhibition (result in words) [6]: Neither ketoprofen nor niacin was ASBT inhibitor; also recorded: not reduced
